From the NIST ThermoML archive (doi:10.1021/je060084c)

Key:
[1] = refractive index (Na D-line) (dimensionless); xn = mol fraction of the nth substance listed; conditions: 298.15 K, 101 kPa, Liquid, Standard Abbe refractometry
[2] = xn = mol fraction of the nth substance listed; conditions: 298.15 K; for mass density: 101 kPa, Liquid
[3] = refractive index (Na D-line) (dimensionless); conditions: 298.15 K; 101.33 kPa; Liquid; Standard Abbe refractometry
[4] = 298.15 K; for mass density: 101.33 kPa, Liquid

CCC(=O)O [propanoic acid] + O
Conditions | mass density, [2] [kg/m3] | refractive index, [1] | surface tension liquid-gas, [2] [mN/m]
x1 = 0.0008 | 997.47 | 1.33292 | 68.52
x1 = 0.0016 | 997.64 | 1.33304 | 66.47
x1 = 0.0029 | 998.15 | 1.33367 | 63.66
x1 = 0.0044 | 998.68 | 1.33422 | 60.98
x1 = 0.0064 | 999.29 | 1.33485 | 57.91
x1 = 0.0103 | 1000.6 | 1.33606 | 53.54
x1 = 0.0179 | 1002.71 | 1.3385 | 48.16
x1 = 0.0272 | 1005.51 | 1.34145 | 44.12
x1 = 0.047 | 1006.86 | 1.34689 | 38.89
x1 = 0.0618 | 1008.97 | 1.35074 | 36.93
x1 = 0.0989 | 1017.17 | 1.35796 | 34.71
x1 = 0.2016 | 1022.07 | 1.37093 | 32.25
x1 = 0.3008 | 1021.51 | 1.3784 | 31.12
x1 = 0.4003 | 1018.87 | 1.38294 | 30.19
x1 = 0.5009 | 1014.33 | 1.38564 | 29.36
x1 = 0.6039 | 1010.12 | 1.3869 | 28.56
x1 = 0.702 | 1005.03 | 1.38721 | 27.91
x1 = 0.7666 | 1002.83 | 1.38709 | 27.52
x1 = 0.8784 | 996.68 | 1.38599 | 26.92

CC(=O)O [acetic acid] + O
Conditions | mass density, [2] [kg/m3] | refractive index, [1] | surface tension liquid-gas, [2] [mN/m]
x1 = 0.0001 | – | – | 71.79
x1 = 0.0005 | – | – | 71.18
x1 = 0.0007 | 997.41 | 1.33285 | 71.04
x1 = 0.0008 | – | – | 70.84
x1 = 0.0012 | 997.88 | 1.33312 | 70.37
x1 = 0.006 | 998.92 | 1.33422 | 66.17
x1 = 0.0066 | – | – | 65.76
x1 = 0.0119 | 1000.78 | 1.33576 | 62.57
x1 = 0.0138 | – | – | 61.57
x1 = 0.0234 | – | – | 58.26
x1 = 0.0257 | 1004.39 | 1.33874 | 57.45
x1 = 0.0404 | – | – | 53.14
x1 = 0.0516 | 1011.91 | 1.34364 | 50.64
x1 = 0.0746 | – | – | 47.25
x1 = 0.1086 | – | – | 43.43
x1 = 0.1108 | 1031.57 | 1.35281 | 43.39
x1 = 0.1513 | 1040.9 | 1.35708 | 40.12
x1 = 0.1814 | 1046.55 | 1.36009 | 39.24
x1 = 0.2288 | 1052.46 | 1.36386 | 38.17
x1 = 0.3053 | 1058.74 | 1.36818 | 36.5
x1 = 0.4129 | 1063.49 | 1.3723 | 34.8
x1 = 0.516 | 1064.54 | 1.37456 | 33.23
x1 = 0.6068 | 1063.64 | 1.37543 | 31.87
x1 = 0.7035 | 1061.07 | 1.37543 | 30.32
x1 = 0.8067 | 1057 | 1.37459 | 29.32
x1 = 0.9076 | 1051.89 | 1.37257 | 28.42

CCCC(=O)O [butanoic acid]
Conditions | mass density [kg/m3] | refractive index | surface tension liquid-gas [mN/m]
[3] | – | 1.39599 | –
[4] | 953.17 | – | 26.19

O=CO [formic acid] + O
Conditions | mass density, [2] [kg/m3] | refractive index, [1] | surface tension liquid-gas, [2] [mN/m]
x1 = 0.0007 | 997.52 | 1.33265 | 71.48
x1 = 0.0015 | 998.02 | 1.33269 | 71.14
x1 = 0.0028 | 998.79 | 1.33271 | 70.65
x1 = 0.0067 | 1001.27 | 1.33343 | 69.45
x1 = 0.0106 | 1003.6 | 1.3344 | 68.59
x1 = 0.0154 | 1006.31 | 1.33496 | 67.53
x1 = 0.0277 | 1013.84 | 1.33633 | 65.46
x1 = 0.0442 | – | – | 63.13
x1 = 0.0538 | 1026.93 | 1.33912 | –
x1 = 0.0755 | – | – | 59.92
x1 = 0.1098 | 1052.76 | 1.34454 | 57.29
x1 = 0.1539 | 1069.49 | 1.34829 | 55.23
x1 = 0.204 | 1086.51 | 1.35223 | 52.74
x1 = 0.3004 | 1114.3 | 1.35863 | 49.18
x1 = 0.4178 | 1141.55 | 1.36478 | 47.25
x1 = 0.5101 | 1158.59 | 1.36885 | 45.73
x1 = 0.6133 | 1174.83 | 1.3722 | 43.41
x1 = 0.7058 | 1187.06 | 1.37444 | 41.42
x1 = 0.8162 | 1198.4 | 1.37543 | 40.12
x1 = 0.8967 | 1204.13 | 1.37543 | 39.13

CCC(=O)O [propanoic acid]
Conditions | mass density [kg/m3] | refractive index | surface tension liquid-gas [mN/m]
[3] | – | 1.38484 | –
[4] | 988.33 | – | 26.15

CCCC(=O)O [butanoic acid] + O
Conditions | mass density, [2] [kg/m3] | refractive index, [1] | surface tension liquid-gas, [2] [mN/m]
x1 = 4e-05 | 997.14 | 1.33256 | 71.12
x1 = 0.0001 | 997.28 | 1.33259 | 70.47
x1 = 0.0006 | 997.35 | 1.33282 | 66.32
x1 = 0.0016 | 997.39 | 1.33325 | 60.32
x1 = 0.0028 | – | – | 55.12
x1 = 0.0056 | 998.24 | 1.33514 | 46.34
x1 = 0.0075 | – | – | 42.12
x1 = 0.0136 | 999.83 | 1.33877 | 35.88
x1 = 0.0201 | 1000.84 | 1.34064 | 31.94
x1 = 0.0299 | 1001.79 | 1.34506 | 29.24
x1 = 0.048 | 1001.61 | 1.35064 | 28.48
x1 = 0.0596 | 1000.55 | 1.35359 | 28.35
x1 = 0.0865 | 998.76 | 1.35959 | 28.23
x1 = 0.1034 | 997.68 | 1.36283 | 28.15
x1 = 0.2033 | 992.5 | 1.37695 | 27.92
x1 = 0.2997 | 987.71 | 1.38524 | 27.73
x1 = 0.381 | 983.12 | 1.38923 | 27.66
x1 = 0.5038 | 977.2 | 1.3933 | 27.56
x1 = 0.5763 | 973.62 | 1.39471 | 27.42
x1 = 0.7036 | 967.47 | 1.39625 | 27.13
x1 = 0.8019 | 962.35 | 1.39667 | 26.9
x1 = 0.9189 | 957.18 | 1.39654 | 26.51

CC(=O)O [acetic acid]
Conditions | mass density [kg/m3] | refractive index | surface tension liquid-gas [mN/m]
[3] | – | 1.36969 | –
[4] | 1043.95 | – | 27.08

O=CO [formic acid]
Conditions | mass density [kg/m3] | refractive index | surface tension liquid-gas [mN/m]
[3] | – | 1.37459 | –
[4] | 1211.29 | – | 38.17
